Like-named read-outs stand apart in the source and are kept apart here.
Assays:
[1] = published value, 37 C; cited from earlier work
Ward rat tumor = details: HPPH alone, previous findings; cited from earlier work
[2] = T1 and T2 relaxivities of compounds 4, 9 & 14 on 4.7 Tesla preclinical MRI; assay type: physicochemical; details: T1 relaxivity, 37C, in PBS
Experimental: Characterization of MR imaging efficacy for compounds 4, 9 & 14. MR imaging was performed on a 4.7 Tesla preclinical MRI using the ParaVision 3.0.2 acquisition platform (Bruker Biospin, Billerica Mass.). In vitro relaxivities were acquired using the Bruker G060 gradient insert and a quadrature radiofrequency coil (35 mm ID, m2m Imaging, Cleveland Ohio). In vivo imaging in rat models utilized larger Accustar® shield gradients (150 mm ID) and a quadrature radiofrequency coil (72 mm ID, Bruker Biospin).
T1 and T2 relaxivities for compounds 4, 9 & 14 were acquired at 37C. Samples were diluted in PBS with concentrations ranging from 50 to 200 μM and transferred to NMR tubes for imaging. A tube containing 1× PBS was included as a “0 μM control”. T1 relaxation rates of serial dilutions were measured using an inversion-recovery TrueFISP acquisition with the following parameters: TE/TR=1.5/3.0 ms, flip angle=30°, inv. Repetition time=10 s, segments=8, frames=100. T2 relaxation rates were measured using a multi-echo, Carr-Purcell-Meiboom-Gill (CPMG) spin-echo sequence with a fixed TR of 3000 ms and TE times ranging from 20-1200 ms in 20 ms increments (60 echoes). The relaxation rate of each sample calculated using non-linear regression analysis routines developed in MATLAB (MathWorks, Natick, Mass.) and relaxivities were then calculated by linear regression (concentration vs. relaxation rate).

rl at 4.7T [2] [mM/s] | Structure (SMILES) | rl at 4.7T [1] [mM/s] | further results
 | O=C([O-])CN1CCN(CC(=O)[O-])CCN(CC(=O)O)CCN(CC(=O)[O-])CC1.[Gd+3] [Gd-DOTA] | 2.8 | 
 | O=C([O-])CN(CCN(CC(=O)[O-])CC(=O)O)CCN(CC(=O)[O-])CC(=O)O.[Gd+3] [Gd-DTPA, Gadolinium-diethyline-triamine pentacetic-acid] | 3.2 | 
 | CCCCCCOC(C)c1c(C)c2cc3nc(c4c5[nH]c(cc6nc(cc1[nH]2)C(C)=C6CC)c(C)c5C(=O)C4)[C@@H](CCC(=O)O)[C@@H]3C (some centres unmarked) [HPPH, 3-(1-hexyloxyethyl) pyropheophorbide-a] |  | time of peak concentrations (Ward rat tumor): 24 h
4.44 | CCCCCCOC(C)c1c(C)c2cc3nc(c4c5[nH]c(cc6nc(cc1[nH]2)C(C)=C6CC)c(C)c5C(=O)C4)[C@@H](CCC(=O)NCCNC(=O)CN1CCN(CC(=O)[O-])CCN(CC(=O)[O-])CCN(CC(=O)[O-])CC1)C3C.[Gd+3] (some centres unmarked) [compound 4] |  | 
10.65 | CCCCCCOC(C)c1c(C)c2cc3nc(c4c5[nH]c(cc6nc(cc1[nH]2)C(C)=C6CC)c(C)c5C(=O)C4)[C@@H](CCC(=O)N(CC(=O)NCCNC(=O)CN1CCN(CC(=O)[O-])CCN(CC(=O)[O-])CCN(CC(=O)[O-])CC1)CC(=O)NCCNC(=O)CN1CCN(CC(=O)[O-])CCN(CC(=O)[O-])CCN(CC(=O)[O-])CC1)C3C.[Gd+3].[Gd+3] (some centres unmarked) [compound 9] |  | 
